{
  "source": "patent US20240158370A1",
  "about": "“CK1 alpha AND DUAL CK1 alpha / GSPT1 DEGRADING COMPOUNDS” (Innovo Therapeutics, Inc., priority 2022, published 2024)",
  "assay_type_in_all_cases": "cell-based",
  "key": {"CK1α": {"molecular_target": "T1, CK1α (Homo sapiens, UniProt P48729+Q96SW2)", "T1 construct": "CSNK1A1-HiBit KI HEK293(LgBit) Cells; host or cells: HEK293(LgBit) knock-in cells", "T1 sequence (P48729 whole entry)": "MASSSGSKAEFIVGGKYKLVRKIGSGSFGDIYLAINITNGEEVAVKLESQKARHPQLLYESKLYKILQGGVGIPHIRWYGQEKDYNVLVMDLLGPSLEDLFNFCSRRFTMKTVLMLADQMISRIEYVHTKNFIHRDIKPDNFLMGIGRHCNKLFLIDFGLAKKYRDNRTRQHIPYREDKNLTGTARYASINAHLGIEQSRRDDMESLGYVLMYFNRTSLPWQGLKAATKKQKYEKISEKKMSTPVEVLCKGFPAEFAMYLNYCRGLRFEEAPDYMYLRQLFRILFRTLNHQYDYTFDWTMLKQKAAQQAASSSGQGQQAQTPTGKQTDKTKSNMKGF", "T1 sequence (Q96SW2 whole entry)": "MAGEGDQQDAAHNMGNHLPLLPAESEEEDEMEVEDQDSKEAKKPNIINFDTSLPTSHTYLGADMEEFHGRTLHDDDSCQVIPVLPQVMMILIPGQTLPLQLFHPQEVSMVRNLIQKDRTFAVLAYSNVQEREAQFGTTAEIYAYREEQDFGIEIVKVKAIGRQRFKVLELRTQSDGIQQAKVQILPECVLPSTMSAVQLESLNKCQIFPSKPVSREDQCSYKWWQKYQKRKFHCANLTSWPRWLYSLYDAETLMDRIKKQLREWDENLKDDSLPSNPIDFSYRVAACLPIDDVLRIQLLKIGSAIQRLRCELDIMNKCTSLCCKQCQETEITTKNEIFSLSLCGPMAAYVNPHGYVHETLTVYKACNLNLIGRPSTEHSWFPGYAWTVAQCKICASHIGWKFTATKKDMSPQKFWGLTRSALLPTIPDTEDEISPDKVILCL", "T1 sequence (Q16531 whole entry partner)": "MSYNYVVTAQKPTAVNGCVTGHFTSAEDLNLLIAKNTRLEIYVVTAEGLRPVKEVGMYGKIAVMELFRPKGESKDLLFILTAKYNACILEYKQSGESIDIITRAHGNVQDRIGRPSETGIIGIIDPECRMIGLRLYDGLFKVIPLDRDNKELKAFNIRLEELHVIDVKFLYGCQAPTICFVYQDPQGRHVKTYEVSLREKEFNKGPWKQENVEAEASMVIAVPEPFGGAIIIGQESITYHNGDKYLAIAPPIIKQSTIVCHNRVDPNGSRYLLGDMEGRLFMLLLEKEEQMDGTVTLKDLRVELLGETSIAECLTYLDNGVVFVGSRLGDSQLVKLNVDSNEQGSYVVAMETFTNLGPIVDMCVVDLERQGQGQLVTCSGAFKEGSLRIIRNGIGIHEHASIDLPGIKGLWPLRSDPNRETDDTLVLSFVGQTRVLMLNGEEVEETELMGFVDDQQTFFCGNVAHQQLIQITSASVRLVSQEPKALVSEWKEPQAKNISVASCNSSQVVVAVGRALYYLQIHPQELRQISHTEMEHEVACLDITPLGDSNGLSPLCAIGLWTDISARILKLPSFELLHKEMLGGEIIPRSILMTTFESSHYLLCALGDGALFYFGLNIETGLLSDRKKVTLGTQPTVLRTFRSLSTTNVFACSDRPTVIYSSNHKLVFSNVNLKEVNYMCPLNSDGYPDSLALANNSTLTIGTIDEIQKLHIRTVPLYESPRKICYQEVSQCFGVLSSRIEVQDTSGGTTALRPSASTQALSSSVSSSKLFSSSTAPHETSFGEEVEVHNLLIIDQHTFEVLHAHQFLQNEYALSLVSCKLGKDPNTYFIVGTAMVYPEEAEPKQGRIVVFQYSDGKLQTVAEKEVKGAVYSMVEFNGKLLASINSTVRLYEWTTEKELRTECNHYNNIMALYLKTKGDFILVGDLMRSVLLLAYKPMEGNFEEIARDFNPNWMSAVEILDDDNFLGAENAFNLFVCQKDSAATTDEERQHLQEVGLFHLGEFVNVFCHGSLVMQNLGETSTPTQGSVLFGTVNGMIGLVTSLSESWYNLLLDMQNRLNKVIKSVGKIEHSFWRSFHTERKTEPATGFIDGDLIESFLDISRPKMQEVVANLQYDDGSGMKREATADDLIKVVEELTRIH", "test": "HiBiT degradation assay, CK1α, Procedure A", "in_short": "(§1)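 Luminescence from HiBiT lytic detection, read after 20 min shaking, gave DC50 and Ymin by 4-parameter fit. Before that, cells (1×10^6 cells/ml, DMEM+10% FBS) sat 6 h at 37° C on 10-point compound series (10 μM–0.005 μM, 0.1% DMSO).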"}, "Z-138 cells": {"tested_on": "Z-138 cells", "test": "Z-138 Proliferation Assay (Cell Titer-Glo)", "details": "72 hours; for Ymin (%): % remaining (percent of DMSO control); for EC50: Homo sapiens, Cell Titer-Glo, 4-parameter curve fit", "description": "Z-138 Proliferation Assay\nZ-138 cells were cultured in IMDM Medium supplemented with 10% heat in-activated fetal bovine serum and 1% Penicillin-Streptomycin.\n10 mM stocks of compound were made from fresh powder. DMSO was added to solid compound so that the final concentration was 10 mM. Compounds were vortexed and allowed to sit for 5 minutes to ensure complete solubility. Solvated compound was aliquoted into 1 ml Eppendorf tubes and stored in a −20° C. freezer.\nZ-138 cells were maintained in culture using standard cell culturing techniques.\nCells were maintained at a density of 0.8×10^6 cells/ml.\nRe-constitute cell titer-glo reagent according to manufacturer's protocol.\nZ-138 cells were removed from culture and cell viability and density were determined using a CellDrop™ Automated Cell Counter with Tryphan blue stain according to manufacturer's protocols. Cells were centrifuged and resuspended using fresh media to a cell density of 0.1×10^6 cells/ml. […] 40 μl of cell suspension was added to the wells of a 384 well tissue culture plate (4,000 cells/well final). Upon completing the addition of the cells to the plate, the plates were centrifuged for 30 seconds at 300 rpms to help the cells settle and to bring air bubbles to the top of the wells. Air bubbles were popped using a pipette tip.\n10-point dose response curves were performed using a D300e Digital Dispenser. The highest concentration of compound used in the assay was 10,000 nM. 1:2 dilutions were performed over a 10-point range with the final DMSO concentration being 0.1%. The cells were cultured for 72 hours in the presence of compound.\nAfter 72 hours, the cell plates were removed from the incubator and allowed to equilibrate to room temperature (about 15 minutes). 20 μl of cell titer-glo reagent was added to each well of the 384 well plate. Incubated the plate for 30 minutes in the dark. After 30 minutes, ensured that there were no air bubbles in the plate (popped bubbles with pipette tip if necessary) and analyzed plate using a luminometer.\nEC50 curves were generated using Prism Graph Pad. In brief, POCs (percent of control, compound/DMSO control×100) were plotted against the compound concentrations (log scale). EC50 curves were generated using a 4-parameter curve fit."}, "GSPT1": {"molecular_target": "GSPT1 (Homo sapiens, UniProt P15170+Q96SW2)", "sequence (P15170 whole entry)": "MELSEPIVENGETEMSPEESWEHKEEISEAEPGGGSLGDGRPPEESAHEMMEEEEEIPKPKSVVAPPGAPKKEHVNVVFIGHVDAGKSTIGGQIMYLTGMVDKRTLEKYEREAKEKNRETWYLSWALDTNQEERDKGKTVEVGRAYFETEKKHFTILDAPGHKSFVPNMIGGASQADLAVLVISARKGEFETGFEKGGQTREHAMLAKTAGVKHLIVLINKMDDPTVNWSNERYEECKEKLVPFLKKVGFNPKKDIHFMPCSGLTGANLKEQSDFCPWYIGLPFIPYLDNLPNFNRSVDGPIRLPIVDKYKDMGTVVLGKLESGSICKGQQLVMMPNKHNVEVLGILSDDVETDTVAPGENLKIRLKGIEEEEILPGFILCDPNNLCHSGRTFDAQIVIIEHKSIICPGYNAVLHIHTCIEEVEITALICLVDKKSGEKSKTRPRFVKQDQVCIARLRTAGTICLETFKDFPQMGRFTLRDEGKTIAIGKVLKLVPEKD", "sequence (Q96SW2 whole entry)": "as the sequence (Q96SW2 whole entry) above", "sequence (Q16531 whole entry partner)": "as the sequence (Q16531 whole entry partner) above", "test": "HiBiT degradation assay, GSPT1, Procedure A", "design": "HiBit-GSPT1 KI HEK293(LgBit) Cells; host or cells: HEK293(LgBit) knock-in cells", "in_short": "as §1"}},
  "data": [
    {"compound": "Cn1cc(-c2ccc3c(c2)CN(C2CCC(=O)NC2=O)C3=O)nc1C1CCCCC1", "note": "(stereo not drawn) [Example 335, 3-(5-(2-cyclohexyl-1-methyl-1H-imidazol-4-yl)-1-oxoisoindolin-2-yl)piperidine-2,6-dione]", "values": [
      {"measurement": "CK1α Ymin", "setting": "CK1α; six hours incubation", "value": "C (C = 0-10% remaining)"},
      {"measurement": "DC50", "setting": "CK1α; six hours incubation", "value": "< 25", "unit": "nM"},
      {"measurement": "Ymin (%)", "setting": "Z-138 cells", "value": "D (0-10% remaining)"},
      {"measurement": "EC50", "setting": "Z-138 cells", "value": "10 to 100", "unit": "nM"},
      {"measurement": "DC50", "setting": "GSPT1; six hours incubation", "value": "< 25", "unit": "nM"},
      {"measurement": "GSPT1 Ymin", "setting": "GSPT1; six hours incubation", "value": "F (F = >75-100% remaining)"}
    ]},
    {"compound": "O=C1CCC(N2Cc3cc(-c4ncn5c4-c4ccccc4C5)ccc3C2=O)C(=O)N1", "note": "(stereo not drawn) [Example 339, 3-(5-(5H-imidazo[5,1-a]isoindol-1-yl)-1-oxoisoindolin-2-yl)piperidine-2,6-dione]", "values": [
      {"measurement": "CK1α Ymin", "setting": "CK1α; six hours incubation", "value": "C (C = 0-10% remaining)"},
      {"measurement": "DC50", "setting": "CK1α; six hours incubation", "value": "< 25", "unit": "nM"},
      {"measurement": "Ymin (%)", "setting": "Z-138 cells", "value": "D (0-10% remaining)"},
      {"measurement": "EC50", "setting": "Z-138 cells", "value": "10 to 100", "unit": "nM"},
      {"measurement": "DC50", "setting": "GSPT1; six hours incubation", "value": "< 25", "unit": "nM"},
      {"measurement": "GSPT1 Ymin", "setting": "GSPT1; six hours incubation", "value": "F (F = >75-100% remaining)"}
    ]},
    {"compound": "Cn1ncc(-c2ccc3c(c2)CN(C2CCC(=O)NC2=O)C3=O)c1-c1ccc2cc[nH]c2c1", "note": "(stereo not drawn) [Example 379]", "values": [
      {"measurement": "CK1α Ymin", "setting": "CK1α; six hours", "value": "C (C = 0-10% remaining)"},
      {"measurement": "DC50", "setting": "CK1α; six hours", "value": "< 25", "unit": "nM"},
      {"measurement": "Ymin (%)", "setting": "Z-138 cells", "value": "D (0-10% remaining)"},
      {"measurement": "EC50", "setting": "Z-138 cells", "value": "< 10", "unit": "nM"},
      {"measurement": "DC50", "setting": "GSPT1; six hours", "value": "≥ 25", "unit": "nM"},
      {"measurement": "GSPT1 Ymin", "setting": "GSPT1; six hours", "value": "F (F = >75-100% remaining)"}
    ]},
    {"compound": "O=C1CCC(N2Cc3cc(-c4cn(C(F)F)c(-c5ccccc5)n4)ccc3C2=O)C(=O)N1", "note": "(stereo not drawn) [Example 421, 3-(5-(1-(difluoromethyl)-2-phenyl-1H-imidazol-4-yl)-1-oxoisoindolin-2-yl)piperidine-2,6-dione]", "values": [
      {"measurement": "CK1α Ymin", "setting": "CK1α; six hours", "value": "C (C = 0-10% remaining)"},
      {"measurement": "DC50", "setting": "CK1α; six hours", "value": "< 25", "unit": "nM"},
      {"measurement": "Ymin (%)", "setting": "Z-138 cells", "value": "F (>25-50% remaining)"},
      {"measurement": "EC50", "setting": "Z-138 cells", "value": "10 to 100", "unit": "nM"},
      {"measurement": "DC50", "setting": "GSPT1; six hours", "value": "≥ 25", "unit": "nM"},
      {"measurement": "GSPT1 Ymin", "setting": "GSPT1; six hours", "value": "F (F = >75-100% remaining)"}
    ]},
    {"compound": "O=C1CCC(N2Cc3cc(-c4cnn(C(F)F)c4-c4ccccc4)ccc3C2=O)C(=O)N1", "note": "(stereo not drawn) [Example 422, 3-(5-(1-(difluoromethyl)-5-phenyl-1H-pyrazol-4-yl)-1-oxoisoindolin-2-yl)piperidine-2,6-dione]", "values": [
      {"measurement": "CK1α Ymin", "setting": "CK1α; six hours", "value": "D (D = >10- 25% remaining)"},
      {"measurement": "DC50", "setting": "CK1α; six hours", "value": "< 25", "unit": "nM"},
      {"measurement": "Ymin (%)", "setting": "Z-138 cells", "value": "D (0-10% remaining)"},
      {"measurement": "EC50", "setting": "Z-138 cells", "value": "10 to 100", "unit": "nM"},
      {"measurement": "DC50", "setting": "GSPT1; six hours", "value": "< 25", "unit": "nM"},
      {"measurement": "GSPT1 Ymin", "setting": "GSPT1; six hours", "value": "F (F = >75-100% remaining)"}
    ]},
    {"compound": "COc1ccc(-c2c(-c3ccc4c(c3)CN(C3CCC(=O)NC3=O)C4=O)cnn2C(F)F)c(Cl)c1", "note": "(stereo not drawn) [Example 518, 3-(5-(5-(2-chloro-4-methoxyphenyl)-1-(difluoromethyl)-1H-pyrazol-4-yl)-1-oxoisoindolin-2-yl)piperidine-2,6-dione]", "values": [
      {"measurement": "CK1α Ymin", "setting": "CK1α; six hours", "value": "C (C = 0-10% remaining)"},
      {"measurement": "DC50", "setting": "CK1α; six hours", "value": "< 25", "unit": "nM"},
      {"measurement": "Ymin (%)", "setting": "Z-138 cells", "value": "D (0-10% remaining)"},
      {"measurement": "EC50", "setting": "Z-138 cells", "value": "10 to 100", "unit": "nM"},
      {"measurement": "DC50", "setting": "GSPT1; six hours", "value": "< 25", "unit": "nM"},
      {"measurement": "GSPT1 Ymin", "setting": "GSPT1; six hours", "value": "F (F = >75-100% remaining)"}
    ]},
    {"compound": "Cn1nc(-c2ccc3c(c2)CN(C2CCC(=O)NC2=O)C3=O)nc1-c1ccccc1", "note": "(stereo not drawn) [Example 519, 3-[5-(1-methyl-5-phenyl-1,2,4-triazol-3-yl)-1-oxo-isoindolin-2-yl]piperidine-2,6-dione]", "values": [
      {"measurement": "CK1α Ymin", "setting": "CK1α; six hours", "value": "C (C = 0-10% remaining)"},
      {"measurement": "DC50", "setting": "CK1α; six hours", "value": "< 25", "unit": "nM"},
      {"measurement": "Ymin (%)", "setting": "Z-138 cells", "value": "E (>10-25% remaining)"},
      {"measurement": "EC50", "setting": "Z-138 cells", "value": "10 to 100", "unit": "nM"},
      {"measurement": "DC50", "setting": "GSPT1; six hours", "value": "≥ 25", "unit": "nM"},
      {"measurement": "GSPT1 Ymin", "setting": "GSPT1; six hours", "value": "F (F = >75-100% remaining)"}
    ]},
    {"compound": "Cn1nc(-c2ccc3c(c2)CN(C2CCC(=O)NC2=O)C3=O)cc1C1CCC(F)(F)CC1", "note": "(stereo not drawn) [Example 546, 3-(5-(5-(4,4-difluorocyclohexyl)-1-methyl-1H-pyrazol-3-yl)-1-oxoisoindolin-2-yl)piperidine-2,6-dione]", "values": [
      {"measurement": "CK1α Ymin", "setting": "CK1α; six hours", "value": "D (D = >10- 25% remaining)"},
      {"measurement": "DC50", "setting": "CK1α; six hours", "value": "< 25", "unit": "nM"},
      {"measurement": "Ymin (%)", "setting": "Z-138 cells", "value": "F (>25-50% remaining)"},
      {"measurement": "EC50", "setting": "Z-138 cells", "value": "10 to 100", "unit": "nM"},
      {"measurement": "DC50", "setting": "GSPT1; six hours", "value": "≥ 25", "unit": "nM"},
      {"measurement": "GSPT1 Ymin", "setting": "GSPT1; six hours", "value": "F (F = >75-100% remaining)"}
    ]},
    {"compound": "CC(C)n1nc(-c2ccc3c(c2)CN(C2CCC(=O)NC2=O)C3=O)cc1-c1ccccc1", "note": "(stereo not drawn) [Example 550, 3-(5-(1-isopropyl-5-phenyl-1H-pyrazol-3-yl)-1-oxoisoindolin-2-yl)piperidine-2,6-dione]", "values": [
      {"measurement": "CK1α Ymin", "setting": "CK1α; six hours", "value": "C (C = 0-10% remaining)"},
      {"measurement": "DC50", "setting": "CK1α; six hours", "value": "< 25", "unit": "nM"},
      {"measurement": "Ymin (%)", "setting": "Z-138 cells", "value": "D (0-10% remaining)"},
      {"measurement": "EC50", "setting": "Z-138 cells", "value": "10 to 100", "unit": "nM"},
      {"measurement": "DC50", "setting": "GSPT1; six hours", "value": "≥ 25", "unit": "nM"},
      {"measurement": "GSPT1 Ymin", "setting": "GSPT1; six hours", "value": "F (F = >75-100% remaining)"}
    ]},
    {"compound": "CC(C)n1nc(-c2ccc3c(c2)CN(C2CCC(=O)NC2=O)C3=O)nc1-c1ccccc1", "note": "(stereo not drawn) [Example 553, 3-(5-(1-isopropyl-5-phenyl-1H-1,2,4-triazol-3-yl)-1-oxoisoindolin-2-yl)piperidine-2,6-dione]", "values": [
      {"measurement": "CK1α Ymin", "setting": "CK1α; six hours", "value": "C (C = 0-10% remaining)"},
      {"measurement": "DC50", "setting": "CK1α; six hours", "value": "< 25", "unit": "nM"},
      {"measurement": "Ymin (%)", "setting": "Z-138 cells", "value": "D (0-10% remaining)"},
      {"measurement": "EC50", "setting": "Z-138 cells", "value": "10 to 100", "unit": "nM"},
      {"measurement": "DC50", "setting": "GSPT1; six hours", "value": "≥ 25", "unit": "nM"},
      {"measurement": "GSPT1 Ymin", "setting": "GSPT1; six hours", "value": "F (F = >75-100% remaining)"}
    ]}
  ]
}
